{
  "source": "patent US10668051B2",
  "about": "“Modulators of calcium release-activated calcium channel” (Rhizen Pharmaceuticals SA, priority 2009, dated 2020)",
  "note": "Counter-ions that a name gives are not always drawn.",
  "data": [
    {"target": "CRAC channels (Homo sapiens (Human), UniProt Q96D31)", "sequence (Q96D31 whole entry)": "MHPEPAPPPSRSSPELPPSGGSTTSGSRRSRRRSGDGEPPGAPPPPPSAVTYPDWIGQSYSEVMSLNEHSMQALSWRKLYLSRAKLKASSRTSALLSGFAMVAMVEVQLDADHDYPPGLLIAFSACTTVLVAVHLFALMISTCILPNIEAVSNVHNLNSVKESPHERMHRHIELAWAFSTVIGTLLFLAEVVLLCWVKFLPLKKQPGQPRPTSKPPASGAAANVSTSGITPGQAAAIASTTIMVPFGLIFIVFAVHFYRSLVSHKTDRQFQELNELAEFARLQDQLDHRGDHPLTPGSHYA", "assay": "In-vitro CRAC channel inhibition assay in Jurkat cells (thapsigargin-induced calcium influx)", "format": "cell-based", "experimental": "1A. In-Vitro CRAC Channel Inhibition Assay in Jurkat Cells\nPlate is incubated at 37° C./5% CO2 for 30 min followed by further 15 min incubation at room temperature. Test compounds (DMSO stocks diluted in Ca^2+ and Mg^2+ free Hanks buffer) at desired concentrations were added to the wells and incubated for 15 min. Thapsigargin (1 μM final concentration) was added to the wells and incubated for 15 min to inhibit the Sarco-endoplasmic reticulum Ca^2+ ATPase pump thereby depleting endoplasmic calcium and raising cytosolic calcium concentrations. Store-operated calcium entry was initiated by adding extracellular Ca^2+ to a final concentration of 1.8 mM. Fluorescence was monitored over 5 min on a plate reader (BMG Labtech., Germany) with excitation at 485 nm and; an emission wavelength at 520 nm. Data were analyzed using GraphPad Prism. IC50 for each compound was determined based on the percent inhibition of thapsigargin-induced calcium influx into cells.", "units": {"inhibition at 1 µM": "%"}, "values": [
      {"smiles": "O=C(Cc1ccccn1)Nc1ccc(-n2nc(C(F)(F)F)c(Cl)c2C2CC2)c(F)c1", "note": "[Example 96, N-{4-[4-chloro-5-cyclopropyl-3-(trifluoromethyl)-1H-pyrazol-1-yl]-3-fluorophenyl}-2-(pyridin-2-yl)acetamide hydrochloride]", "inhibition at 1 µM": 18},
      {"smiles": "Cc1ncncc1NC(=O)Nc1ccc(-n2nc(C(F)(F)F)cc2C2CC2)c(F)c1", "note": "[Example 97, 1-{4-[5-cyclopropyl-3-(trifluoromethyl)-1H-pyrazol-1-yl]-3-fluorophenyl}-3-(4-methylpyrimidin-5-yl)urea]", "inhibition at 1 µM": 97},
      {"smiles": "O=C(Nc1c(Cl)cccc1Cl)c1ccc(-n2nc(C(F)(F)F)cc2C2CC2)c(F)c1", "note": "[Example 98]", "inhibition at 1 µM": 85.6},
      {"smiles": "O=C(Nc1cccc(F)c1F)c1ccc(-n2nc(C(F)(F)F)cc2C2CC2)c(F)c1", "note": "[Example 99, 4-[5-cyclopropyl-3-(trifluoromethyl)-1H-pyrazol-1-yl]-N-(2,3-difluorophenyl)-3-fluorobenzamide]", "inhibition at 1 µM": 56.2},
      {"smiles": "Cc1nnsc1C(=O)Nc1ccc(-n2nc(C(F)(F)F)cc2C2CC2)nc1", "note": "[Example 101, N-{6-[5-cyclopropyl-3-(trifluoromethyl)-1H-pyrazol-1-yl]pyridin-3-yl}-4-methyl-1,2,3-thiadiazole-5-carboxamide]", "inhibition at 1 µM": 93},
      {"smiles": "Cc1ncsc1C(=O)Nc1ccc(-n2nc(C(F)(F)F)cc2C2CC2)nc1", "note": "[Example 102, N-{6-[5-cyclopropyl-3-(trifluoromethyl)-1H-pyrazol-1-yl]pyridin-3-yl}-4-methylthiazole-5-carboxamide hydrochloride]", "inhibition at 1 µM": 34.9},
      {"smiles": "Cc1noc(C)c1C(=O)Nc1ccc(-n2nc(C(F)(F)F)cc2C2CC2)nc1", "note": "[Example 103, N-{6-[5-cyclopropyl-3-(trifluoromethyl)-1H-pyrazol-1-yl]pyridin-3-yl}-3,5-dimethylisoxazole-4-carboxamide]", "inhibition at 1 µM": 19.4},
      {"smiles": "O=C(Nc1ccc(-n2nc(C(F)(F)F)cc2C2CC2)nc1)c1ccccc1Cl", "note": "[Example 105, 2-chloro-N-{6-[5-cyclopropyl-3-(trifluoromethyl)-1H-pyrazol-1-yl]pyridin-3-yl}benzamide hydrochloride]", "inhibition at 1 µM": 71.2},
      {"smiles": "O=C(Nc1ccc(-n2nc(C(F)(F)F)cc2C2CC2)nc1)c1cccc(F)c1F", "note": "[Example 107, N-{6-[5-cyclopropyl-3-(trifluoromethyl)-1H-pyrazol-1-yl]pyridin-3-yl}-2,3-difluorobenzamide]", "inhibition at 1 µM": 97},
      {"smiles": "O=C(Nc1ccc(-n2nc(C(F)(F)F)cc2C2CC2)nc1)c1ccccn1", "note": "[Example 109, N-{6-[5-cyclopropyl-3-(trifluoromethyl)-1H-pyrazol-1-yl]pyridin-3-yl}picolinamide]", "inhibition at 1 µM": 6.18},
      {"smiles": "Cc1cccnc1C(=O)Nc1ccc(-n2nc(C(F)(F)F)cc2C2CC2)nc1", "note": "[Example 110, N-{6-[5-cyclopropyl-3-(trifluoromethyl)-1H-pyrazol-1-yl]pyridin-3-yl}-3-methylpicolinamide]", "inhibition at 1 µM": 78.4},
      {"smiles": "O=C(Nc1ccc(-n2nc(C(F)(F)F)cc2C2CC2)nc1)c1ccncc1", "note": "[Example 113, N-{6-[5-cyclopropyl-3-(trifluoromethyl)-1H-pyrazol-1-yl]pyridin-3-yl}isonicotinamide hydrochloride]", "inhibition at 1 µM": 100},
      {"smiles": "O=C(Nc1ccc(-n2nc(C(F)(F)F)cc2C2CC2)nc1)c1ccncc1F", "note": "[Example 114, N-{6-[5-cyclopropyl-3-(trifluoromethyl)-1H-pyrazol-1-yl]pyridin-3-yl}-3-fluoroisonicotinamide]", "inhibition at 1 µM": 88.7},
      {"smiles": "O=C(Nc1ccc(-n2nc(C(F)(F)F)cc2C2CC2)nc1)c1c(Cl)cncc1Cl", "note": "[Example 115, 3,5-dichloro-N-{6-[5-cyclopropyl-3-(trifluoromethyl)-1H-pyrazol-1-yl]pyridin-3-yl}isonicotmamide]", "inhibition at 1 µM": 51.3},
      {"smiles": "Cc1ncncc1C(=O)Nc1ccc(-n2nc(C(F)(F)F)cc2C2CC2)nc1", "note": "[Example 116, N-{6-[5-cyclopropyl-3-(trifluoromethyl)-1H-pyrazol-1-yl]pyridin-3-yl}-4-methylpyrimidine-5-carboxamide]", "inhibition at 1 µM": 15.4},
      {"smiles": "O=C(Cc1ccccn1)Nc1ccc(-n2nc(C(F)(F)F)cc2C2CC2)nc1", "note": "[Example 117, N-{6-[5-cyclopropyl-3-(trifluoromethyl)-1H-pyrazol-1-yl]pyridin-3-yl}-2-(pyridin-2-yl)acetamide hydrochloride]", "inhibition at 1 µM": 0},
      {"smiles": "O=C(Cc1ccncc1)Nc1ccc(-n2nc(C(F)(F)F)cc2C2CC2)nc1", "note": "[Example 118, N-{6-[5-cyclopropyl-3-(trifluoromethyl)-1H-pyrazol-1-yl]pyridin-3-yl}-2-(pyridin-4-yl)acetamide hydrochloride]", "inhibition at 1 µM": 20.9},
      {"smiles": "Cc1ncncc1C(=O)Nc1ccc(-n2nc(C(F)(F)F)c(Cl)c2C2CC2)c(F)c1", "note": "[Example 119, N-{4-[4-chloro-5-cyclopropyl-3-(trifluoromethyl)-1H-pyrazol-1-yl]-3-fluorophenyl}-4-methylpyrimidine-5-carboxamide]", "inhibition at 1 µM": 40.5},
      {"smiles": "O=C(Nc1cccc(F)c1F)c1ccc(-n2nc(C(F)(F)F)cc2C2CC2)nc1", "note": "[Example 121, 6-[5-cyclopropyl-3-(trifluoromethyl)-1H-pyrazol-1-yl]-N-(2,3-difluorophenyl)nicotinamide]", "inhibition at 1 µM": 23.1},
      {"smiles": "O=C(Nc1c(F)cccc1F)c1ccc(-n2nc(C(F)(F)F)cc2C2CC2)nc1", "note": "[Example 122, 6-[5-cyclopropyl-3-(trifluoromethyl)-1H-pyrazol-1-yl]-N-(2,6-difluorophenyl) nicotinamide]", "inhibition at 1 µM": 100},
      {"smiles": "Cc1ncsc1C(=O)Nc1ccc(-n2nc(C(F)(F)F)c(Cl)c2C2CC2)nc1", "note": "[Example 123, N-{6-[4-chloro-5-cyclopropyl-3-trifluoromethyl-1H-pyrazol-1-yl]pyridin-3-yl}-4-methylthiazole-5-carboxamide]", "inhibition at 1 µM": 31},
      {"smiles": "O=C(Nc1cnc(-n2nc(C(F)(F)F)cc2C2CC2)nc1)c1c(F)cccc1F", "note": "[Example 124, N-{2-[5-cyclopropyl-3-(trifluoromethyl)-1H-pyrazol-1-yl]pyrimidin-5-yl}-2,6-difluorobenzamide]", "inhibition at 1 µM": 86.2},
      {"smiles": "Cc1ncsc1C(=O)Nc1ccc(-n2nc(C(F)(F)F)cc2CF)cc1", "note": "[Example 125, N-{4-[5-(fluoromethyl)-3-(trifluoromethyl)-1H-pyrazol-1-yl]phenyl}-4-methylthiazole-5-carboxamide]", "inhibition at 1 µM": 100},
      {"smiles": "Cc1ncsc1C(=O)Nc1ccc(-n2nc(C(F)(F)F)cc2C(F)F)cc1", "note": "[Example 126, N-{4-[5-(difluoromethyl)-3-(trifluoromethyl)-1H-pyrazol-1-yl]phenyl}-4-methyl thiazole-5-carboxamide]", "inhibition at 1 µM": 100},
      {"smiles": "O=C(Nc1ccc(-n2nc(C3CC3)cc2C2CC2)c(F)c1)c1c(Cl)cncc1Cl", "note": "[Example 127, 3,5-dichloro-N-[4-(3,5-dicyclopropyl-1H-pyrazol-1-yl)-3-fluorophenyl]isonicotinamide]", "inhibition at 1 µM": 66.3},
      {"smiles": "O=C(Nc1c(F)cccc1Cl)c1ccc(-n2nc(C(F)(F)F)cc2C2CC2)c(F)c1", "note": "[Example 128, N-(2-chloro-6-fluorophenyl)-4-[5-cyclopropyl-3-(trifluoromethyl)-1H-pyrazol-1-yl]-3-fluorobenzamide]", "inhibition at 1 µM": 100},
      {"smiles": "Cc1ncsc1C(=O)Nc1cnc(-n2nc(C(F)(F)F)cc2C2CC2)nc1", "note": "[Example 129, N-{2-[5-cyclopropyl-3-(trifluoromethyl)-1H-pyrazol-1-yl]pyrimidin-5-yl}-4-methyl thiazole-5-carboxamide]", "inhibition at 1 µM": 28.3}
    ]}
  ]
}
